Where a name gives a salt, the structure may show the parent alone. Where a SMILES comes first, the peptide text is derived from it. Bridges are numbered along the chain shown (N, C = ends). [ ]: non-standard residue; d: D form. The star is where a group is joined. Octanoyl(6-Me) = CCC(C)CCCCC(=O)*; Dab = NCC[C@H](N)C(=O)O
Columns and labels:
[1] = test system: Human embryonic kidney cells (HEK 293); assay: Cytotoxicity, MTT assay; type: cell-based; settings: HEK 293, MTT, 72 h, n = 6
Experimental: Human embryonic kidney cells (HEK 293) purchased from the Cell Culture Collection of the Institute of Cytology RAS (St. Petersburg, Russia) were used to study the cytotoxicity of the conjugates. HEK 293 cells were cultured at 37 °C in a humidified atmosphere containing 5% CO2 in modified Eagle’s nutrient medium (MEM, Gibco, Billings, MT, USA) containing 1% essential amino acids, 1% L-glutamine, 50 μg/mL streptomycin, 50 U/mL penicillin, and 10 vol% thermally inactivated fetal bovine serum (FBS, HyClone, Logan, UT, USA). A total of 10^4 cells/100 µL/well was seeded into an adhesive 96-well plate and cultured for 1 day. After that, the medium was removed, and 100 µL of MEM with various concentrations of the test conjugates (4–1000 μg/mL with respect to the CT content) was added to each well with cells and incubated for 72 h. […] After the removal of the supernatant, formazan crystals produced by the metabolically viable cells were dissolved in DMSO (50 μL/well) and transferred to clean wells, followed by measuring the absorbance of the solutions at 570 nm using a multiwell plate reader (ThermoFisher Multiskan Labsystems, Waltham, MA, USA).
(§1) In the case of the CT release and conjugate stability experiments, each assay was performed in three repeats. […] The cell permeability assay and antimicrobial activity were analyzed with n = 3 and 4, respectively. […]

[2] = pH 7.4 and 37 °C; cited from earlier work
Experimental: The stability results of PMAG(10)-(DFOA,CT) conjugates with hydrolyzable (aldimine) bonds and reduced aldimine bonds in different media are summarized in Table 4. It was shown that the release in the buffer and the simulated biorelevant medium was consistent. […] Under gastric conditions, the release after 2 h was 20–26%, whereas under intestinal conditions, a release of 6–12% was detected.

[3] = Caco-2 cell permeability assay; type: in vitro ADME, human; settings: Caco-2 monolayer, 21 days culture, apical to basolateral; 0.5 mg/mL according to CT content in 0.01 M phosphate buffer pH 7.2; PBS basolateral; 2 h, sampled every 30 min; B12 by spectrophotometry, CT by HPLC; mean, n = 3; read-out: apparent permeability coefficient (Papp)
Experimental: (§2) The human colon adenocarcinoma cells (Caco-2) obtained from the Cell Culture Collection of the Institute of Cytology RAS (St. Petersburg, Russia) were used to study cell permeability. The study was carried out as described elsewhere. Briefly, Caco-2 cells were cultured in Dulbecco’s modified Eagle medium (DMEM, Biolot, St. Petersburg, Russia) containing L-glutamine, streptomycin/penicillin and 10% FBS in cell culture flasks (area 75 cm^2, Jet Biofil, Guangzhou, China) at 37 °C in a CO2 incubator under humidified conditions. The cultured cells were re-seeded into a new cell culture flask (1:6 ratio) when the cells reached 80–90% confluence. […] The vitamin B12 content and the content of B12-containing conjugates equivalent to vitamin B12 were determined spectrophotometrically, and the CT transferred to the lower chamber was determined by HPLC analysis as described in Section 2.2.2.
(§3) The Papp was calculated as follows:(2) Papp=dQ/dt∗1/A∗C0 where Papp is the apparent permeability coefficient (cm/s), dQ/dt is the permeation rate (µg/s), A is the area of the monolayer (0.3 sm^2), and C0 is the concentration of the test substance in the apical chamber at the initial time point (µg/mL).
as §1

[4] = test system: P. aeruginosa; settings: concentration range of 0.25–64 µg/mL; cited from earlier work
Text: The antibacterial activity of free CT and its polymeric conjugates was examined against P. aeruginosa. […] When analyzing the results of the MIC values for the conjugates studied, the following trends can be distinguished.

[5] = test system: Caco-2 monolayer; assay: Caco-2 cell permeability assay; type: in vitro ADME, human; settings: 21 days culture, apical to basolateral, 0.5 mg/mL according to CT content in 0.01 M phosphate buffer pH 7.2, PBS basolateral, 2 h, sampled every 30 min, B12 by spectrophotometry, CT by HPLC, mean, n = 3
Experimental: as §2, §3, §1

Compound: CCC(C)CCCCC(=O)N[C@@H](CCN)C(=O)N[C@H](C(=O)N[C@@H](CCN)C(=O)N[C@H]1CCNC(=O)[C@H]([C@@H](C)O)NC(=O)[C@H](CCN)NC(=O)[C@H](CCN)NC(=O)[C@H](CC(C)C)NC(=O)[C@@H](CC(C)C)NC(=O)[C@H](CCN)NC1=O)[C@@H](C)O (stereo partly drawn) [CT, Polymyxin E (colistin, CT) sulfate salt] ({Octanoyl(6-Me)}-[Dab]T[Dab][Dab][Dab][dL]L[Dab][Dab]T; lactam 4-C; N-terminus assumed)
- concentration up to which no toxicity was found ([1]; 4–1000 μg/mL with respect to the CT content): ≤ 250 µg/mL
- cytotoxicity (in words) ([1]; at a concentration of 500 μg/mL (with respect to CT content)): moderate cytotoxicity
- half-life of CT [2]: 70 h
- Papp A→B [3]: ~3 ×10⁻⁶ cm/s

Compound: CC(=O)N(O)CCCCCNC(=O)CCC(=O)N(O)CCCCCNC(=O)CCC(=O)N(O)CCCCCN [DFOA, deferoxamine methanesulfonate salt]
- antibacterial properties against P. aeruginosa [4]: Neither DFOA nor PMAG is known to possess antibacterial properties

Compound: cyanocobalamin [vitamin B12]
- apparent permeability coefficient (Papp) [5]: ~ 77 × 10^−6 cm/s

From paper PMC11359296, “Poly(2-Deoxy-2-Methacrylamido-D-Glucose)-Based Complex Conjugates of Colistin, Deferoxamine and Vitamin B12: Synthesis and Biological Evaluation” (Pharmaceutics, 2024)
